From US20250122208A1, “CHEMOKINE RECEPTOR MODULATORS AND USES THEREOF” (RAPT THERAPEUTICS, INC., priority 2023, published 2025)

Target: T1, CCR4 receptor (Homo sapiens, UniProt P51679)
T1 construct: beta-galactosidase enzyme-fragment tag; From own knowledge, PathHunter uses a ProLink/enzyme-donor fragment, usually at the receptor's C-terminus; expressed in transfected cells; host or cells: CHO-K1
T1 sequence (P51679 1-360): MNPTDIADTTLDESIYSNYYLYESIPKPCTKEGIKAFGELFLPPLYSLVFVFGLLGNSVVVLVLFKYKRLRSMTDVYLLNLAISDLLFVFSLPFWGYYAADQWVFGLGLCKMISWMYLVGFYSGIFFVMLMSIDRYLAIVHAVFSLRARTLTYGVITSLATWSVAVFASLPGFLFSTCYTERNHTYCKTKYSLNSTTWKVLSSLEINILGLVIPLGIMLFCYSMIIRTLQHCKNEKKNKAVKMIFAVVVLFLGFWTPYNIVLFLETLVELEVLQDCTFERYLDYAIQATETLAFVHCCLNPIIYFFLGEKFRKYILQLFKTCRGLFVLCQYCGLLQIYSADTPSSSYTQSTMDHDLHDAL
Test: CCR4 antagonist activity in Beta-Arrestin Cellular Assay (PathHunter, CCL22 challenge)
Format: cell-based
Details: CHO-K1 cells expressing the CCR4 receptor; CCL22 at EC80 (15 nM), 90 minutes; 30 min pre-incubation; read-out: Potency (CCR4 antagonist IC50 in the β-arrestin assay)
Procedure: Example 39. Determination of CCR4 antagonist activity in Beta-Arrestin Cellular Assay
CCR4 Antagonistic Activity was assessed in Beta-Arrestin Cellular Assay. Compounds were assessed in CHO-K1 cells expressing the CCR4 receptor modified to enable β-glactosidase detection of β-arrestin agonist activity stimulated by CCL22 in a chemiluminescence assay. Cells were seeded in a total volume of 20 μL into white walled, 384-well microplates and incubated at 37° C. prior to testing. Cells were pre-incubated with test compound for 30 min at 37° C. followed by agonist challenge with CCL22 at the EC80 concentration (15 nM) for 90 minutes. Assay signal was generated through a single addition of 12.5 or 15 μL ([…]) of PathHunter Detection reagent cocktail, followed by a one-hour incubation at room temperature. Microplates were read following signal generation with a PerkinElmer Envision™ instrument for chemiluminescent signal detection. Antagonist activity was analyzed using CBIS data analysis suite (ChemInnovation, CA). Antagonist activity was characterized as percentage inhibition calculated using the following formula:
An IC50 of >500 nM is designated as Potency C, an IC50 of between 500 nM and 100 nM is designated as Potency B and an IC50 of <100 nM is designated as Potency A.

Row | Structure (SMILES) | IC50 [µM]
1 | C[C@@H](Nc1cc(N2CCC([C@H]3CCCN(C4CCOCC4)C3)CC2)nc2ncnn12)c1ccc(Cl)cc1Cl [Example 6, N-((R)-1-(2,4-dichlorophenyl)ethyl)-5-((R)-1-(tetrahydro-2H-pyran-4-yl)-[3,4′-bipiperidin]-1′-yl)-[1,2,4]triazolo[1,5-a]pyrimidin-7-amine] | < 0.1
2 | C[C@@H](Nc1cc(N2CCC([C@H]3CCCNC3)CC2)nc2ncnn12)c1ccc(Cl)cc1Cl [Example 1, 5-((R)-[3,4′-bipiperidin]-1′-yl)-N-((R)-1-(2,4-dichlorophenyl)ethyl)-[1,2,4]triazolo[1,5-a]pyrimidin-7-amine] | < 0.1
3 | C[C@@H](Nc1cc(N2CCC([C@H]3CCCN(CCC(=O)O)C3)CC2)nc2ncnn12)c1ccc(Cl)cc1Cl [Example 14, 3-((R)-1′-(7-(((R)-1-(2,4-dichlorophenyl)ethyl)amino)-[1,2,4]triazolo[1,5-a]pyrimidin-5-yl)-[3,4′-bipiperidin]-1-yl)propanoic acid] | < 0.1
4 | C[C@@H](Nc1cc(N2CCC([C@H]3CCCN(Cc4nn[nH]n4)C3)CC2)nc2ncnn12)c1ccc(Cl)cc1Cl [Example 2, 5-((R)-1-((2H-tetrazol-5-yl)methyl)-[3,4′-bipiperidin]-1′-yl)-N-((R)-1-(2,4-dichlorophenyl)ethyl)-[1,2,4]triazolo[1,5-a]pyrimidin-7-amine] | < 0.1
5 | C[C@@H](Nc1cc(N2CCC([C@H]3CCCN(Cc4nc[nH]n4)C3)CC2)nc2ncnn12)c1ccc(Cl)cc1Cl [Example 5, 5-((R)-1-((1H-1,2,4-triazol-3-yl)methyl)-[3,4′-bipiperidin]-1′-yl)-N-((R)-1-(2,4-dichlorophenyl)ethyl)-[1,2,4]triazolo[1,5-a]pyrimidin-7-amine] | < 0.1
6 | C[C@@H](Nc1cc(N2CCC([C@H]3CCCN(CCS(C)(=O)=O)C3)CC2)nc2ncnn12)c1ccc(Cl)cc1Cl [Example 12, N-((R)-1-(2,4-dichlorophenyl)ethyl)-5-((R)-1-(2-(methylsulfonyl)ethyl)-[3,4′-bipiperidin]-1′-yl)-[1,2,4]triazolo[1,5-a]pyrimidin-7-amine] | < 0.1
7 | C[C@@H](Nc1cc(N2CCC([C@H]3CCCN(C4CCCC4)C3)CC2)nc2ncnn12)c1ccc(Cl)cc1Cl [Example 10, 5-((R)-1-cyclopentyl-[3,4′-bipiperidin]-1′-yl)-N-((R)-1-(2,4-dichlorophenyl)ethyl)-[1,2,4]triazolo[1,5-a]pyrimidin-7-amine] | < 0.1
8 | C[C@@H](Nc1cc(N2CCC([C@H]3CCCN(CC#N)C3)CC2)nc2ncnn12)c1ccc(Cl)cc1Cl [Example 3, 2-((R)-1′-(7-(((R)-1-(2,4-dichlorophenyl)ethyl)amino)-[1,2,4]triazolo[1,5-a]pyrimidin-5-yl)-[3,4′-bipiperidin]-1-yl)acetonitrile] | < 0.1
9 | CC(=O)NCCN1CCC[C@H](C2CCN(c3cc(N[C@H](C)c4ccc(Cl)cc4Cl)n4ncnc4n3)CC2)C1 [Example 13, N-(2-((R)-1′-(7-(((R)-1-(2,4-dichlorophenyl)ethyl)amino)-[1,2,4]triazolo[1,5-a]pyrimidin-5-yl)-[3,4′-bipiperidin]-1-yl)ethyl)acetamide] | < 0.1

Continued, values first:

Row | IC50 [µM] | Structure (SMILES)
10 | < 0.1 | CNC(=O)CCN1CCC[C@H](C2CCN(c3cc(N[C@H](C)c4ccc(Cl)cc4Cl)n4ncnc4n3)CC2)C1 [Example 17, 3-((R)-1′-(7-(((R)-1-(2,4-dichlorophenyl)ethyl)amino)-[1,2,4]triazolo[1,5-a]pyrimidin-5-yl)-[3,4′-bipiperidin]-1-yl)-N-methylpropanamide]
11 | < 0.1 | C[C@@H](Nc1cc(N2CCC([C@H]3CCCN([C@H]4C[C@](C)(C(=O)O)C4)C3)CC2)nc2ncnn12)c1ccc(Cl)cc1F [Example 37, (1R,3r)-3-((R)-1′-(7-(((R)-1-(4-chloro-2-fluorophenyl)ethyl)amino)-[1,2,4]triazolo[1,5-a]pyrimidin-5-yl)-[3,4′-bipiperidin]-1-yl)-1-methylcyclobutane-1-carboxylic acid]
12 | < 0.1 | CC(CN1CCC[C@H](C2CCN(c3cc(N[C@H](C)c4ccc(Cl)cc4Cl)n4ncnc4n3)CC2)C1)C(=O)O (mixture of isomers) [Example 15, 3-((R)-1′-(7-(((R)-1-(2,4-dichlorophenyl)ethyl)amino)-[1,2,4]triazolo[1,5-a]pyrimidin-5-yl)-[3,4′-bipiperidin]-1-yl)-2-methylpropanoic acid]
13 | < 0.1 | C[C@@H](Nc1cc(N2CCC([C@H]3CCCN([C@H]4C[C@](C)(C(=O)O)C4)C3)CC2)nc2ccnn12)c1ccc(F)cc1F [Example 34, (1R,3r)-3-((R)-1′-(7-(((R)-1-(2,4-difluorophenyl)ethyl)amino)pyrazolo[1,5-a]pyrimidin-5-yl)-[3,4′-bipiperidin]-1-yl)-1-methylcyclobutane-1-carboxylic acid]
14 | < 0.1 | C[C@@H](Nc1cc(N2CCC([C@H]3CCCN([C@H]4C[C@](C)(C(=O)O)C4)C3)CC2)nc2ccnn12)c1ccc(F)cc1Cl [Example 25, (1R,3r)-3-((R)-1′-(7-(((R)-1-(2-chloro-4-fluorophenyl)ethyl)amino)pyrazolo[1,5-a]pyrimidin-5-yl)-[3,4′-bipiperidin]-1-yl)-1-methylcyclobutane-1-carboxylic acid]
15 | < 0.1 | Cc1ccc([C@@H](C)Nc2cc(N3CCC([C@H]4CCCN([C@H]5C[C@](C)(C(=O)O)C5)C4)CC3)nc3ccnn23)c(Cl)c1 [Example 31, (1R,3r)-3-((R)-1′-(7-(((R)-1-(2-chloro-4-methylphenyl)ethyl)amino)pyrazolo[1,5-a]pyrimidin-5-yl)-[3,4′-bipiperidin]-1-yl)-1-methylcyclobutane-1-carboxylic acid]
16 | 0.1 to 0.5 | Cc1cc(Cl)ccc1[C@@H](C)Nc1cc(N2CCC([C@H]3CCCN([C@H]4C[C@](C)(C(=O)O)C4)C3)CC2)nc2ncnn12 [Example 33, (1R,3r)-3-((R)-1′-(7-(((R)-1-(4-chloro-2-methylphenyl)ethyl)amino)-[1,2,4]triazolo[1,5-a]pyrimidin-5-yl)-[3,4′-bipiperidin]-1-yl)-1-methylcyclobutane-1-carboxylic acid]
17 | < 0.1 | C[C@@H](Nc1cc(N2CCC([C@H]3CCCN(CCS(N)(=O)=O)C3)CC2)nc2ncnn12)c1ccc(Cl)cc1Cl [Example 19, 2-((R)-1′-(7-(((R)-1-(2,4-dichlorophenyl)ethyl)amino)-[1,2,4]triazolo[1,5-a]pyrimidin-5-yl)-[3,4′-bipiperidin]-1-yl)ethane-1-sulfonamide]
18 | < 0.1 | CC(CCN1CCC[C@H](C2CCN(c3cc(N[C@H](C)c4ccc(Cl)cc4Cl)n4ncnc4n3)CC2)C1)C(=O)O (mixture of isomers) [Example 16, 4-((R)-1′-(7-(((R)-1-(2,4-dichlorophenyl)ethyl)amino)-[1,2,4]triazolo[1,5-a]pyrimidin-5-yl)-[3,4′-bipiperidin]-1-yl)-2-methylbutanoic acid]
19 | < 0.1 | C[C@@H](Nc1cc(N2CCC([C@H]3CCCN([C@H]4C[C@](C)(C(=O)O)C4)C3)CC2)nc2ccnn12)c1ccc(Cl)cc1Cl [Example 24, (1R,3r)-3-((R)-1′-(7-(((R)-1-(2,4-dichlorophenyl)ethyl)amino)pyrazolo[1,5-a]pyrimidin-5-yl)-[3,4′-bipiperidin]-1-yl)-1-methylcyclobutane-1-carboxylic acid]
20 | 0.1 to 0.5 | C[C@@H](Nc1cc(N2CCC([C@H]3CCCN([C@H]4C[C@](C)(C(=O)O)C4)C3)CC2)nc2ncnn12)c1ccc(F)cc1F [Example 35, (1R,3r)-3-((R)-1′-(7-(((R)-1-(2,4-difluorophenyl)ethyl)amino)-[1,2,4]triazolo[1,5-a]pyrimidin-5-yl)-[3,4′-bipiperidin]-1-yl)-1-methylcyclobutane-1-carboxylic acid]
21 | 0.1 to 0.5 | Cc1cc(F)ccc1[C@@H](C)Nc1cc(N2CCC([C@H]3CCCN([C@H]4C[C@](C)(C(=O)O)C4)C3)CC2)nc2ncnn12 [Example 28, (1R,3r)-3-((R)-1′-(7-(((R)-1-(4-fluoro-2-methylphenyl)ethyl)amino)-[1,2,4]triazolo[1,5-a]pyrimidin-5-yl)-[3,4′-bipiperidin]-1-yl)-1-methylcyclobutane-1-carboxylic acid]
22 | < 0.1 | C[C@@H](Nc1cc(N2CCC(C3CCCN(CCO)C3)C2)nc2ncnn12)c1ccc(Cl)cc1Cl (single isomer, unassigned) [Example 23a]
